Here are results for 1 compound from US6808699B2, “Methods for imaging pulmonary and cardiac vasculature and evaluating blood flow using dissolved polarized 129Xe” (Medi-Physics, Inc., priority 1998, dated 2004).

The conditions of data set [1]: cited from earlier work; for longitudinal relaxation time T1: dissolved phase, estimated.
Data set [2] can be described thus: longitudinal relaxation time T1 of polarized 129Xe. Particulars: gas in the lung, with decay due to blood uptake included. The class given is physicochemical, human. An excerpt: As will be appreciated by those of skill in the art, imaging with polarized dissolved gas depends on transport of sufficient surviving polarization or magnetization to tissues of interest. In a preferred embodiment, the tissues of interest include the pulmonary region, and particularly the pulmonary vasculature. As will also be appreciated by those of skill in the art, polarization decays corresponding to the longitudinal relaxation time, T1. Dissolved phase ^129Xe can have a relatively short relaxation time (T1) generally thought to be due to the presence of oxygen and due to paramagnetic deoxyhemoglobin in the blood. For example, T1 for substantially fully oxygenated human cell membranes is estimated at about 15 seconds. Alternatively, T1 in blood has also been estimated as about 5 seconds. See A. Bifone et al., 93 Proc. Natl. Acad. Sci., p. 12932 (1996). Taking the estimated upper limit of about a five second transit time to the heart as discussed above, the xenon polarization can be attenuated to about ⅓ of its starting value at the heart. This relationship supports that TR should be shortened to less than about 2.5 seconds, and preferably less than about 1-2 seconds. Correspondingly, with about a 2.5 second transit time, the magnetization can be calculated as noted above to be about 0.61 of its starting magnetization. […]

Like-named read-outs stand apart in the source and are kept apart here.

Consider `[129Xe]` [^129Xe, Xenon-129], for which the “longitudinal relaxation time T1” value in data set [1] (in blood, Bifone et al. 1996) is on record as “about 5 seconds”; in data set [1] (substantially fully oxygenated human cell membranes), “about 15 seconds”. The “gas phase T1” value in data set [1] (gas phase in the lungs, estimated from generally known oxygen related effects) is reported as “about 35 seconds”. Moreover, in data set [2], the “effective T1” value is “about 33 seconds”.
